Test: Chloride-dependent intensity decay analysis of SPQ-C18 in MyDay contact lenses, 20 mM MOPS pH 7.3
Type: physicochemical
Description: Fluorescence Spectroscopic Measurements. Fluorescence intensities and intensity decays were measured using a Varian™ Eclipse 4 spectrofluorometer and a FluoTime300 instrument from PicoQuant™ (Berlin, Germany) and analyzed with the EasyTau™ software. The excitation source was a 473 nm laser diode with a repetition rate of 40 MHZ and a pulse width less than 100 ps. In other embodiments, the excitation source for SG-PL was at 495 nm from a Solea™ supercontinuum laser (PicoQuant™, Germany) and a 375 nm laser diode (PDL 375, PicoQuant™), a repetition rate of 40 MHz, and a pulse width less than 100 ps. Some intensity and lifetime measurements for SG-PL (as indicated) were performed using Alba V confocal fluorescence lifetime microscopy, FLIM (ISS, Urbana, Ill.), with excitation source of a 473 nm laser diode with a repetition rate of 40 MHz and a pulse width near 250 ps.
Intensity decays were measured at the emission maximum with the band of 10 to 20 nm, analyzed in terms of the multi-exponential model:
I(t)=Σαi exp(−t/ti) (equation 1)
where ti are the individual decay times and αi the initial time-zero amplitudes. The mean decay time can be represented in two ways. The average lifetime is given by:
where Σαi=1.0 and Σfi=1.0. The term fi=αi τi is proportional to the fractional contribution of each component to the total intensity decay. The term τi/Σαi τi is the fractional contribution to the steady state emission. Here, we use the amplitude-weighted lifetime given by
which is appropriate when the emission is from a single fluorophore with a changing quantum yield. For a single exponential decay, the lifetime is given by τ=1.0/(knr+Γ) and the quantum yield is given by Q=Γ/(knr+Γ) where knr is the sum of all non-radiative decay rates and Γ is the radiative decay rate. The value of Γ is determined by the molecular extinction coefficient that remains constant under most conditions. For a single type of fluorophore with a constant value of Γ the normalized αi values represent the molecular fraction of each decay time component. The value of αi and τi were determined by non-linear least squares fitting using PicoQuant™ software.
Quenching by Chloride. Collisional quenching occurs, for example, when SPQ-C18 (also referred to as OD-MQB (N-Octadecyl-6-methoxyquinolinium bromide)) has a diffusion collision with a chloride ion. The intensities (I) and lifetimes (6) are analyzed using the Stern-Volmer equation,
SPQ-C18 was synthesized using 6-methoxy quinolinium (SPQ) and 1-bromooctadecane (C18) as described in the art. Lenses were labeled by incubation with 3 ml of a 1 μM solution of SPQ-C18 in methanol-water. SPQ-C18 bound rapidly to the Biofinity™ lenses. […] Unless stated otherwise, all spectral measurements conducted for the present study were performed in 20 mM MOPS buffer, 8 mM KCl, pH 7.2, at room temperature.

CCCCCCCCCCCCCCCCCC[n+]1cccc2cc(OC)ccc21 [SPQ-C18, N-Octadecyl-6-methoxyquinolinium bromide]
f1 (NaCl 0 mM): 0.074 | f2 (NaCl 0 mM): 0.191 | f3 (NaCl 0 mM): 0.735 | α1 (NaCl 0 mM): 0.560 | α2 (NaCl 0 mM): 0.187 | α3 (NaCl 0 mM): 0.253 | τ1 (NaCl 0 mM): 1.03 ns | τ2 (NaCl 0 mM): 8.00 ns | τ3 (NaCl 0 mM): 22.78 ns | τf (NaCl 0 mM): 18.36 ns | τα (NaCl 0 mM): 7.83 ns | f1 (NaCl 10 mM): 0.078 | f2 (NaCl 10 mM): 0.315 | f3 (NaCl 10 mM): 0.607 | α1 (NaCl 10 mM): 0.496 | α2 (NaCl 10 mM): 0.290 | α3 (NaCl 10 mM): 0.214 | τ1 (NaCl 10 mM): 1.05 ns | τ2 (NaCl 10 mM): 7.22 ns | τ3 (NaCl 10 mM): 18.80 ns | τf (NaCl 10 mM): 13.76 ns | τα (NaCl 10 mM): 6.63 ns | f1 (NaCl 20 mM): 0.102 | f2 (NaCl 20 mM): 0.306 | f3 (NaCl 20 mM): 0.592 | α1 (NaCl 20 mM): 0.554 | α2 (NaCl 20 mM): 0.263 | α3 (NaCl 20 mM): 0.183 | τ1 (NaCl 20 mM): 1.12 ns | τ2 (NaCl 20 mM): 7.04 ns | τ3 (NaCl 20 mM): 19.59 ns | τf (NaCl 20 mM): 13.86 ns | τα (NaCl 20 mM): 6.05 ns | f1 (NaCl 40 mM): 0.126 | f2 (NaCl 40 mM): 0.375 | f3 (NaCl 40 mM): 0.499 | α1 (NaCl 40 mM): 0.590 | α2 (NaCl 40 mM): 0.275 | α3 (NaCl 40 mM): 0.136 | τ1 (NaCl 40 mM): 1.06 ns | τ2 (NaCl 40 mM): 6.78 ns | τ3 (NaCl 40 mM): 18.24 ns | τf (NaCl 40 mM): 11.78 ns | τα (NaCl 40 mM): 4.96 ns | f1 (NaCl 80 mM): 0.148 | f2 (NaCl 80 mM): 0.373 | f3 (NaCl 80 mM): 0.478 | α1 (NaCl 80 mM): 0.601 | α2 (NaCl 80 mM): 0.284 | α3 (NaCl 80 mM): 0.115 | τ1 (NaCl 80 mM): 1.05 ns | τ2 (NaCl 80 mM): 5.58 ns | τ3 (NaCl 80 mM): 17.70 ns | τf (NaCl 80 mM): 10.71 ns | τα (NaCl 80 mM): 4.25 ns | f1 (NaCl 140 mM): 0.177 | f2 (NaCl 140 mM): 0.368 | f3 (NaCl 140 mM): 0.455 | α1 (NaCl 140 mM): 0.649 | α2 (NaCl 140 mM): 0.253 | α3 (NaCl 140 mM): 0.099 | τ1 (NaCl 140 mM): 1.01 ns | τ2 (NaCl 140 mM): 5.39 ns | τ3 (NaCl 140 mM): 17.05 ns | τf (NaCl 140 mM): 9.92 ns | τα (NaCl 140 mM): 3.70 ns | f1 (NaCl 220 mM): 0.191 | f2 (NaCl 220 mM): 0.425 | f3 (NaCl 220 mM): 0.284 | α1 (NaCl 220 mM): 0.636 | α2 (NaCl 220 mM): 0.282 | α3 (NaCl 220 mM): 0.081 | τ1 (NaCl 220 mM): 0.94 ns | τ2 (NaCl 220 mM): 4.71 ns | τ3 (NaCl 220 mM): 14.81 ns | τf (NaCl 220 mM): 7.87 ns | τα (NaCl 220 mM): 3.13 ns

Source: patent US20220050096A1, “ANALYTE-SENSITIVE PROBES AND CONTACT LENS FOR DIAGNOSIS OF OCULAR PATHOLOGIES” (University Of Maryland, Baltimore, priority 2020, published 2022)
